In ChEMBL document CHEMBL1122633, “Interactions of antitumor drugs with natural DNA: 1H NMR study of binding mode and kinetics” (J Med Chem, 1984):

tested on: Nucleic Acid; assay: DNA binding dissociation constant as KD; type: nucleic-acid assay

Structure (SMILES) | Log Kd
CN(C)CCN1C(=O)c2cccc3cc([N+](=O)[O-])cc(c23)C1=O | 5.16
CS(=O)(=O)Nc1cccc(Nc2c3ccccc3nc3ccccc23)c1 | 5.8
c1ccc2c(c1)[nH]c1cnccc12 | 5.34
CCN(CC)CCOc1ccc2c(c1)C(=O)c1cc(OCCN(CC)CC)ccc1-2 | 5.64
Cc1cc2nc3ccccc3n(-c3cccc(N(C)C)c3)c-2c(C)c1=N | 3.64
Nc1c2ccccc2nc2ccccc12 | 5.7
Cc1c2ccncc2c(C)c2c1[nH]c1ccccc12 | 5.18
CS(=O)(=O)Nc1ccc(Nc2c3ccccc3nc3ccccc23)cc1 | 5.63
COc1cccc2c1C(=O)c1c(O)c3c(c(O)c1C2=O)C[C@@](O)(C(C)=O)C[C@@H]3O[C@H]1C[C@H](N)[C@H](O)[C@H](C)O1 | 6.49
c1ccc2c(c1)ccc1[n+]2Cc2ccc3ccccc3[n+]2-1 | 4.7
CCN(CC)CCCC(C)Nc1c2ccc(Cl)cc2nc2ccc(OC)cc12 (stereo unspecified) | 4.25
Cc1c2ccncc2c(C)c2c1[nH]c1ccc(O)cc12 | 0.3
CC[n+]1c(-c2ccccc2)c2cc(N)ccc2c2ccccc21 | 4.9
CS(=O)(=O)Nc1ccccc1Nc1c2ccccc2nc2ccccc12 | 5.72
Cn1cc(NC(=O)c2cc(NC(=O)c3cc(NC=O)cn3C)cn2C)cc1C(=O)NCCC(=N)N | 6.06
CCN(CC)CCCC(C)Nc1ccnc2cc(Cl)ccc12 (stereo unspecified) | 4.25
COc1cc(NS(C)(=O)=O)ccc1Nc1c2ccccc2nc2ccccc12 | 5.14
C[n+]1c(-c2ccccc2)c2cc(N)ccc2c2ccc(N)cc21 | 5.7
CC[n+]1c(-c2ccccc2)c2cc(N)ccc2c2ccc(N)cc21 | 5.7
Cc1c2cc[n+](C)cc2c(C)c2c1[nH]c1ccc(O)cc12 | 6.11
C[n+]1ccc(Nc2ccc(NC(=O)c3ccc(Nc4cc[n+](C)c5ccc(N)cc45)cc3)cc2)cc1 | 6.9
